According to US11530244B2, “Cyclic polypeptides for PCSK9 inhibition” (priority 2018, dated 2022):
Starred links: 1 amine or outer side, 2 acyl side, 3 side chain; linkers in the order of their positions; H or OH if unused. Positions of bridges follow the written chain, without caps; N, C: chain ends. Non-standard residues stand in square brackets, D forms with d. Residues, ends and D or L forms follow the SMILES beside them. X38 = NC(=O)[C@H](CSCc1cccc(C[*:1])c1)NC(=O)[C@@H]1CCCC1C(=O)[C@H](Cc1ccc(OCC2CCCCC2)cc1)N[*:2]; X25 = O=C([C@H](Cc1cccc(OCC=[*:3])c1)N[*:1])[*:2]; X26 = O=C([C@@H]1[C@@H](OCC=[*:3])CCN1[*:1])[*:2]; Phe(4-COOH) = N[C@@H](Cc1ccc(C(=O)O)cc1)C(=O)O; Trp(5-F) = N[C@@H](Cc1c[nH]c2ccc(F)cc12)C(=O)O; Pro(trans-4-F) = O=C(O)[C@@H]1C[C@@H](F)CN1; X11 = COc1ccc(C[C@H](N[*:1])C(=O)[*:2])cc1C; Asp(3,3-Me2) = CC(C)(C(=O)O)[C@H](N)C(=O)O; Dip = N[C@H](C(=O)O)C(c1ccccc1)c1ccccc1; X4 = O=C(CCSCc1cccc(CSCCN[*:1])c1)[*:2]; X27 = O=C([C@@H](N[*:1])C1(O)CC1)[*:2]; mXylylene = c1cc(C[*:1])cc(C[*:2])c1; NMeY = CN[C@@H](Cc1ccc(O)cc1)C(=O)O; X34 = O=C(CCC1CCN([*:1])CC1)[*:2]; X7 = O=C(Cc1ccc(CN[*:1])cc1)[*:2]; X15 = Brc1cc(C[*:1])cc(C[*:2])c1; X35 = COc1cc(C[*:1])cc(C[*:2])c1; X22 = Oc1cc(C[*:1])cc(C[*:2])c1; αMeP = C[C@@]1(C(=O)O)CCCN1; Orn = NCCC[C@H](N)C(=O)O; Mpa = O=C(O)CCS

Columns and labels:
[1] = molecular target: human PCSK9 / human LDLR EGFa domain interaction (Homo sapiens (Human), UniProt Q8NBP7); experiment: TR-FRET assay of inhibition of the PCSK9-LDLR protein-protein interaction; format: binding; conditions: TR-FRET, 20 nM human PCSK9, 20 nM human LDLR EGFa domain, 2 hours room temperature; read-out: IC50
human PCSK9 / human LDLR EGFa domain interaction, sequence (Q8NBP7 153-692): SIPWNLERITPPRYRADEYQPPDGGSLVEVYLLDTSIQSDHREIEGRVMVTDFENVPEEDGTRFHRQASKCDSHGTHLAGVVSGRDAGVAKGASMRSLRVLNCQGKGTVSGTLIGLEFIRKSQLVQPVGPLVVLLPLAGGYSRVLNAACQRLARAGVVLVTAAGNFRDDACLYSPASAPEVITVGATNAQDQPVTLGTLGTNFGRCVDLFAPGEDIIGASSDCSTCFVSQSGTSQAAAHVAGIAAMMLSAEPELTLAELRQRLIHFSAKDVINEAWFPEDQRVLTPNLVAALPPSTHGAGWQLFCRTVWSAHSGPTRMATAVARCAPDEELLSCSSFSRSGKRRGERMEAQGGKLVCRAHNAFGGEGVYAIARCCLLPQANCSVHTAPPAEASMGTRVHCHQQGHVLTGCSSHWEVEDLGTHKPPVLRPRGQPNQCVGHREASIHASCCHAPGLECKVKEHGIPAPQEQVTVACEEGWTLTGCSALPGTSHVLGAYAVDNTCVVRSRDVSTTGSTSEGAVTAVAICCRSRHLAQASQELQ
human PCSK9 / human LDLR EGFa domain interaction, sequence (Q8NBP7 31-152 partner): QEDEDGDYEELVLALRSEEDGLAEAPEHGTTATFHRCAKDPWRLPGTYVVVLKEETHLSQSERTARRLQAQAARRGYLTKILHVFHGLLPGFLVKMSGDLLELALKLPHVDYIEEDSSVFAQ
How it was run: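 Half-maximal inhibitory concentrations came from 4-parameter fits of dose-response data. Proteins: biotinylated PCSK9, His-tagged LDLR EGFa, 20 nM each; labels 5 nM; 2 h, room temperature; buffer 50 mM HEPES, 150 mM NaCl, 5 mM CaCl2.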

[2] = molecular target: PCSK9 (Homo sapiens (Human), UniProt Q8NBP7); experiment: PCSK9 Alexa FRET Standard assay (displacement of AlexaFluor647 tagged cyclic peptide Reagent A); format: binding; conditions: PCSK9 Alexa FRET Standard assay, 0.5 nM PCSK9, 20 nM AF cyclic peptide Reagent A; read-out: IC50
PCSK9, sequence (Q8NBP7 153-692): as the sequence (Q8NBP7 153-692) above
How it was run: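 TR-FRET displacement: 0.5 nM biotinylated PCSK9 with 1.25 nM Strep-Eu and 20 nM AlexaFluor-tagged cyclic peptide (final) in 50 mM HEPES pH 7.4, 0.15 M NaCl, 5 mM CaCl2, 0.01% BSA, 0.01% P20, ≥2 h at room temperature. IC50 from sigmoidal fit, converted to Ki via peptide KD; falling Eu counts flagged false positives.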

Row | Structure (SMILES) | IC50 [1] [µM] | IC50 [2] [µM]
1 | C[C@H]1NC(=O)[C@H](CCCCN)NC(=O)CCSCc2cccc(c2)CSCCNC(=O)[C@]2(C)CCCN2C(=O)[C@H](C(c2ccccc2)c2ccccc2)NC(=O)[C@H](Cc2cnc[nH]2)NC(=O)[C@H](CC(=O)O)NC(=O)[C@H](Cc2c[nH]c3ccc(F)cc23)NC(=O)[C@H](Cc2c[nH]c3ccc(F)cc23)NC1=O [Compound 406] (cyclo(DH[Dip][αMeP][X4]K[dA][Trp(5-F)][Trp(5-F)])) | 0.0001 to 0.1 | 0.1 to 1
2 | CC(=O)N[C@@H]1CCCCNC(=O)c2ccc(cc2)C[C@@H](C(N)=O)NC(=O)[C@]2(C)CCCN2C(=O)[C@H](Cc2ccc(O)cc2)NC(=O)[C@H](Cc2cnc[nH]2)NC(=O)[C@H](CC(=O)O)NC(=O)[C@H](Cc2c[nH]c3ccc(F)cc23)NC(=O)[C@H](Cc2c[nH]c3ccc(F)cc23)NC(=O)CNC1=O [Compound 255] (Ac-[dK]G[Trp(5-F)][Trp(5-F)]DHY[αMeP][Phe(4-COOH)]-NH2; lactam 1-9) | 0.1 to 1 | 0.1 to 1
3 | COc1ccc(C[C@@H]2NC(=O)[C@H](Cc3cnc[nH]3)NC(=O)[C@H](CC(=O)O)NC(=O)[C@H](Cc3c[nH]c4ccc(F)cc34)NC(=O)[C@H](Cc3c[nH]c4ccc(F)cc34)NC(=O)[C@H](C)NC(=O)CCC3CCN(CC3)C(=O)[C@H](CC(N)=O)NC(=O)[C@]3(C)CCCN3C2=O)cc1 [Compound 404] (cyclo(A[Trp(5-F)][Trp(5-F)]DHY(Me)[αMeP]N[X34])) | 0.1 to 1 | 1 to 12.1
4 | NCCC[C@@H]1NC(=O)CCSCc2cccc(c2)CSC[C@@H](C(N)=O)NC(=O)[C@@H]2CCCC2C(=O)[C@H](Cc2ccc(OCC3CCCCC3)cc2)NC(=O)[C@H](Cc2cnc[nH]2)NC(=O)[C@H](CC(=O)O)NC(=O)[C@H](Cc2c[nH]c3ccc(F)cc23)NC(=O)[C@H](Cc2c[nH]c3ccc(F)cc23)NC(=O)CNC1=O (stereo partly drawn) [Compound 340] ([Mpa][Orn]G[Trp(5-F)][Trp(5-F)]DH; linker 1-C via X38) | 0.0001 to 0.1 | 0.1 to 1
5 | COc1ccc(C[C@@H]2NC(=O)[C@H](Cc3c[nH]cn3)NC(=O)[C@H](CC(=O)O)NC(=O)[C@H](Cc3c[nH]c4ccc(F)cc34)NC(=O)[C@H](Cc3c[nH]c4ccc(F)cc34)NC(=O)[C@@H](C)NC(=O)[C@H](CCCCN)NC(=O)CCSCc3cccc(c3)CSCCNC(=O)[C@]3(C)CCCN3C2=O)cc1C [Compound 387] (cyclo(DH[X11][αMeP][X4]K[dA][Trp(5-F)][Trp(5-F)])) | 0.0001 to 0.1 | 0.1 to 1
6 | COc1ccc(C[C@@H]2NC(=O)[C@H]([C@@H](C)O)NC(=O)[C@@H]3CCCN3C(=O)[C@H](Cc3c[nH]c4ccc(F)cc34)NC(=O)[C@H](Cc3c[nH]c4ccc(F)cc34)NC(=O)[C@@H](C)NC(=O)[C@H](CCCCN)NC(=O)CCSCc3cc(cc(OC)c3)CSC[C@@H](C(N)=O)NC(=O)[C@]3(C)CCCN3C2=O)cc1 [Compound 063] ([Mpa]K[dA][Trp(5-F)][Trp(5-F)]PTY(Me)[αMeP]C-NH2; linker 1-10 via X35) | 1 to 12.1 | 21 to 50
7 | COc1ccc(C[C@@H]2NC(=O)[C@H]([C@@H](C)O)NC(=O)[C@@H]3CCCN3C(=O)[C@H](Cc3c[nH]c4ccc(F)cc34)NC(=O)[C@H](Cc3c[nH]c4ccc(F)cc34)NC(=O)[C@@H](C)NC(=O)[C@H](CCCCN)NC(=O)CCSCc3cc(Br)cc(c3)CSC[C@@H](C(N)=O)NC(=O)[C@]3(C)CCCN3C2=O)cc1 [Compound 061] ([Mpa]K[dA][Trp(5-F)][Trp(5-F)]PTY(Me)[αMeP]C-NH2; linker 1-10 via X15) | 21 to 50 | 21 to 50
8 | CO[C@H](C)[C@@H]1NC(=O)[C@@H]2C[C@@H](F)CN2C(=O)[C@H](Cc2c[nH]c3ccc(F)cc23)NC(=O)[C@H](Cc2c[nH]c3ccc(F)cc23)NC(=O)CNC(=O)[C@H](CCCCN)NC(=O)CCSCc2cccc(c2)CSC[C@@H](C(N)=O)NC(=O)[C@]2(C)CCCN2C(=O)[C@H](Cc2ccc(O)cc2)NC1=O [Compound 059] ([Mpa]KG[Trp(5-F)][Trp(5-F)][Pro(trans-4-F)]T(Me)Y[αMeP]C-NH2; linker 1-10 via mXylylene) | 0.1 to 1 | 0.1 to 1
9 | COc1ccc(C[C@@H]2NC(=O)[C@@H]3CC/C=C/CC[C@H](NC(=O)[C@H](Cc4c[nH]c5ccc(F)cc45)NC(=O)[C@H](Cc4c[nH]c5ccc(F)cc45)NC(=O)[C@@H](C)NC(=O)[C@H](CCCCN)NC(=O)CCSCc4cccc(c4)CSCCNC(=O)[C@]4(C)CCCN4C2=O)C(=O)N3)cc1 [Compound 493] | 1 to 12.1 | 1 to 12.1
10 | C[C@H]1NC(=O)[C@H](CCCCN)NC(=O)CCSCc2cccc(c2)CSC[C@@H](C(N)=O)NC(=O)[C@]2(C)CCCN2C(=O)[C@H](Cc2ccc(O)cc2)NC(=O)[C@H]([C@@H](C)O)NC(=O)[C@@H]2CCCN2C(=O)[C@H](Cc2c[nH]c3ccc(F)cc23)NC(=O)[C@H](Cc2c[nH]c3ccc(F)cc23)NC1=O [Compound 044] ([Mpa]K[dA][Trp(5-F)][Trp(5-F)]PTY[αMeP]C-NH2; linker 1-10 via mXylylene) | 0.1 to 1 | 0.1 to 1
11 | COc1ccc(C[C@@H]2NC(=O)[C@H](Cc3cnc[nH]3)NC(=O)[C@H](CC(=O)O)NC(=O)[C@H](Cc3c[nH]c4ccc(F)cc34)NC(=O)[C@H](Cc3c[nH]c4ccc(F)cc34)NC(=O)[C@@H](C)NC(=O)Cc3ccc(cc3)CNC(=O)C[C@@H](C(N)=O)NC(=O)[C@]3(C)CCCN3C2=O)cc1 [Compound 403] ([X7][dA][Trp(5-F)][Trp(5-F)]DHY(Me)[αMeP]D-NH2; lactam N-9) | 0.1 to 1 | 1 to 12.1
12 | COc1ccc(C[C@@H]2NC(=O)[C@H]([C@@H](C)O)NC(=O)[C@@H]3CCCN3C(=O)[C@H](Cc3c[nH]c4ccc(F)cc34)NC(=O)[C@H](Cc3c[nH]c4ccc(F)cc34)NC(=O)[C@@H](C)NC(=O)[C@H](CCCCN)NC(=O)CCSCc3cc(O)cc(c3)CSC[C@@H](C(N)=O)NC(=O)[C@]3(C)CCCN3C2=O)cc1 [Compound 060] ([Mpa]K[dA][Trp(5-F)][Trp(5-F)]PTY(Me)[αMeP]C-NH2; linker 1-10 via X22) | 21 to 50 | 21 to 50
13 | COc1ccc(C[C@@H]2NC(=O)[C@H]([C@@H](C)O)NC(=O)[C@@H]3[C@@H]4CCN3C(=O)[C@H](Cc3c[nH]c5ccc(F)cc35)NC(=O)[C@H](Cc3cccc(c3)OC/C=C/CO4)NC(=O)[C@@H](C)NC(=O)[C@H](C)NC(=O)CCSCc3cccc(c3)CSCCNC(=O)[C@]3(C)CCCN3C2=O)cc1 [Compound 516] (cyclo(A[dA][X25][Trp(5-F)][X26]TY(Me)[αMeP][X4]); staple (E) 3-5) | 0.0001 to 0.1 | 0.00011 to 0.1
14 | C[C@H]1NC(=O)[C@H](CCCCN)NC(=O)CCSCc2cccc(c2)CSCCNC(=O)[C@]2(C)CCCN2C(=O)[C@H](Cc2ccc(O)cc2)N(C)C(=O)[C@H](Cc2c[nH]cn2)NC(=O)[C@H](C(C)(C)C(=O)O)NC(=O)[C@H](Cc2c[nH]c3ccc(F)cc23)NC(=O)[C@H](Cc2c[nH]c3ccc(F)cc23)NC1=O [Compound 383] (cyclo(H[NMeY][αMeP][X4]K[dA][Trp(5-F)][Trp(5-F)][Asp(3,3-Me2)])) | 0.0001 to 0.1 | 0.1 to 1
15 | C[C@@]12CCCN1C(=O)[C@H](Cc1ccc(O)cc1)NC(=O)[C@H](Cc1cnc[nH]1)NC(=O)[C@H](CC(=O)O)NC(=O)[C@H](Cc1c[nH]c3ccc(F)cc13)NC(=O)[C@H](Cc1c[nH]c3ccc(F)cc13)NC(=O)CNC(=O)[C@H](C1(O)CC1)NC(=O)CCSCc1cccc(c1)CSC[C@@H](C(N)=O)NC2=O [Compound 372] ([Mpa][X27]G[Trp(5-F)][Trp(5-F)]DHY[αMeP]C-NH2; linker 1-10 via mXylylene) | 0.1 to 1 | 0.1 to 1
